Reference: patent US5888995A, “Steroid esters” (priority 1991, dated 1999)
Where two headings read alike, the source gives them in different places.

Columns and labels:
[1] = test system: Sephadex induced lung edema (left lung lobe); experiment: Desired local antiinflammatory activity on airway mucosa (left lung lobe), Sephadex induced lung edema model, local instillation; assay type: in vivo, Sprague Dawley rats; conditions: Rattus norvegicus; in liposomes; instilled into left lung lobe 2 h before Sephadex; dose to reduce the edema by 50%; lungs weighed 20 h after Sephadex; read-out: ED50 (left lung administration) Left lung lobe
Experimental: (§1) A) Test model for desired local antiinflammatory activity on airway mucosa (left lung lobe).
(§2) Sprague Dawley rats (250 g) were slightly anaesthetized. with Ephrane and the glucocorticosteroid test preparation (in liposomes suspended in saline) in a volume of 0.5 ml/kg was instilled into the left lung lobe only. Two hours later a suspension of Sephadex (5 mg/kg in a volume of 1 ml/kg) was instilled in the trachea well above the bifurcation so that the suspension reached both the left and right lung lobes. Twenty hours later the rats were killed and the left lung lobes dissected out and weighed. Control groups got vehicle instead of glucocorticosteroid preparation and saline instead of Sephadex suspension so that lung weight due to non-drug-treated, Sephadex-induced edema and the normal lung weight could be determined.

[2] = test system: Sephadex induced lung edema (lung); experiment: Unwanted systemic effect by orally absorbed glucocorticosteroid, Sephadex induced lung edema model, oral administration; assay type: in vivo, Sprague Dawley rats; conditions: Rattus norvegicus, 20 h, in liposomes, given orally 2 h before Sephadex, dose to reduce the edema by 50%, read-out: ED50 (p.o. adm.) lung
Experimental: (§3) B) Test model for unwanted systemic effect by orally absorbed glucocorticosteroid
(§4) Sprague Dawley rats (250 g) were slightly anaesthetized with Ephrane and the GCS test preparation in a volume of 1.0 ml/kg was given orally. Two hours later a suspension of Sephadex (5 mg/kg in a volume of 1 ml/kg) was instilled in the trachea well above the bifurcation so that the suspension reached both the left and the right lung lobes. Twenty hours later, the rats were killed and the lung lobes were weighed. Control groups got vehicle instead of glucocorticosteroid preparation and saline instead of Sephadex suspension so that lung weight due to non-drug-treated, Sephadex-induced edema and the normal lung weight could be determined.

[3] = test system: Sephadex induced lung edema; experiment: Lung selectivity: ratio of oral and local ED50 in the Sephadex induced lung edema model; assay type: in vivo, Sprague Dawley rats; conditions: in liposomes; ED50 p.o. / ED50 left lung lobe
Source text: A considerable fraction of inhaled GCS is deposited in the pharynx and is subsequently swallowed, ending up in the gut. This fraction contributes to the unwanted side effects of the steroid since it is acting outside the area (the lung) intended for treatment. Therefore, it is favourable to use a GCS with high local anti-inflammatory activity in the lung but low GCS-induced effects after oral administration. Studies were therefore done in order to determine the GCS-induced effects after local application in the lung as well as after peroral administration, and the differentiation between glucocorticosteroid actions in the treated lung region and outside this area was tested in the following way.
as §1, §2, §3, §4

[4] = cited from earlier work; for unwanted GCS actions within the general circulation: highest of the recommended doses for inhalation

SMILES	ED50 [1]	ED50 [2]	Ratio oral/local administration (ED50) [3]	unwanted GCS actions within the general circulation [4]	safety margin ([4]; in vivo)	safety margin ([4]; inhaled, clinical use)
CCCCCCCCCCCCCCCC(=O)OCC(=O)[C@@]12OC(CCC)O[C@@H]1C[C@H]1[C@@H]3CCC4=CC(=O)C=C[C@]4(C)[C@H]3[C@@H](O)C[C@@]12C (stereo partly drawn) [Budesonide-21-palmitate (RS), Budesonide-21-palmitate]	0.023 µmol/kg	1.52 µmol/kg	66	–	–	–
CCCCCCCCCCCCCCCC(=O)OCC(=O)[C@@]12O[C@H](CCC)O[C@@H]1C[C@H]1[C@@H]3C[C@H](F)C4=CC(=O)CC[C@]4(C)[C@@]3(F)[C@@H](O)C[C@@]12C [Example 1, (22R)-16α,17α-Butylidenedioxy-6α,9α-difluoro-11β-hydroxy-21-palmitoyloxypregn-4-ene-3,20-dione]	0.0015 µmol/kg	0.839 µmol/kg	559	–	–	–
CCCCCCCCCCCCCCCC(=O)OCC(=O)[C@@]12O[C@@H](CCC)O[C@@H]1C[C@H]1[C@@H]3C[C@H](F)C4=CC(=O)CC[C@]4(C)[C@@]3(F)[C@@H](O)C[C@@]12C [Example 3, (22S)-16α,17α-Butylidenedioxy-6α,9α-difluoro-11β-hydroxy-21-palmitoyloxypregn-4-ene-3,20-dione]	0.0035 µmol/kg	0.554 µmol/kg	158	–	–	–
CCCCCCCCCCCCCCCC(=O)OCC(=O)[C@@]12O[C@H](CCC)O[C@@H]1C[C@H]1[C@@H]3C[C@H](F)C4=CC(=O)C=C[C@]4(C)[C@@]3(F)[C@@H](O)C[C@@]12C [Example 6, (22R)-16α,17α-Butylidenedioxy-6α,9α-difluoro-11β-hydroxy-21-palmitoyloxypregna-1,4-diene-3,20-dione]	0.0018 µmol/kg	–	–	–	–	–
CCCCCCCCCCCCCCCC(=O)OCC(=O)[C@@]12O[C@@H](CCC)O[C@@H]1C[C@H]1[C@@H]3C[C@H](F)C4=CC(=O)C=C[C@]4(C)[C@@]3(F)[C@@H](O)C[C@@]12C [Example 7, (22S)-16α,17α-Butylidenedioxy-6α,9α-difluoro-11β-hydroxy-21-palmitoyloxypregna-1,4-diene-3,20-dione]	0.0023 µmol/kg	0.568 µmol/kg	247	–	–	–
CCCCCCCCCCCCCCCC(=O)OCC(=O)[C@@]1(O)[C@H](C)C[C@H]2[C@@H]3C[C@H](F)C4=CC(=O)C=C[C@]4(C)[C@@]3(F)[C@@H](O)C[C@@]21C [Flumethasone-21-palmitate]	0.0022 µmol/kg	0.018 µmol/kg	8	–	–	–
CCC(=O)OCC(=O)[C@@]1(OC(=O)CC)[C@@H](C)C[C@H]2[C@@H]3CCC4=CC(=O)C=C[C@]4(C)[C@@]3(Cl)[C@@H](O)C[C@@]21C [beclomethasone 17α,21-dipropionate]	–	–	–	unwanted GCS actions within the general circulation have been reported	rather narrow safety margin	–
CCCC1O[C@@H]2C[C@H]3[C@@H]4CCC5=CC(=O)C=C[C@]5(C)[C@H]4[C@@H](O)C[C@]3(C)[C@]2(C(=O)CO)O1 (some centres unmarked) [budesonide]	–	–	–	unwanted GCS actions within the general circulation have been reported	–	rather narrow safety margin
